For one assay, the target named is T1, CDK2/CycA (Homo sapiens, UniProt P24941).
T1 construct: purchased ProQinase (Freiburg, Germany)
The assay is described as follows: General kinase assay (Example 80). In kind it is biochemical. The conditions noted are these: ATP 1 μM. The method, then: (§1) Kinase assays determining CDK2/CyclinA and CDK5/p35 activity were performed as described by the manufacturer's recommendations (ProQinase (Freiburg, Germany) for CDK2/CyclinA and Upstate for CDK5/p35).
(§2) The inhibitory effect of compounds according to the present invention on the activity of protein kinases can be measured according to the following protocol: • Reaction Volume: 40 μl • Reaction Time: 60 min • Reaction Temperature: room temperature • Assay Plate: 96 well U bottom plate (Greiner, 650161) • MultiScreen-PH Plate: 96 well MAPH Filter Plates (Millipore, MAPHNOB50) • Filter Washing Solution: 0.75% H3PO4 • Scintillation Liquid Supermix Liquid Scintillator (PerkinElmer, 1200-439) Controls: • Negative Control (C−): 100 mM EDTA (Ethylenediaminetetraacetic acid), no Inhibitor • Positive Control (C+): no Inhibitor Reaction Buffer: • 20 mM Tris (Tris(hydroxymethyl)aminomethane hydrochloride), pH 7.5 • 10 mM MgCl2 • 1 mM DTT Final Assay Concentrations: • Kinase: Use kinase conc. yielding 10% ATP turn over. • ATP: 1 μM • Adenosine 5′-[-^33P]triphosphate:12.5 μCi/ml (Amersham Biosciences, BF1000) • Substrate: Myelin Basic Protein 10 μM (Invitrogen, 13228-010) Pipetting Sequence: • 1) Add 10 μl 4 fold concentrated Substrate+4 fold concentrated ATP in […] concentrated Reaction Buffer to each well of Assay Plate • 2) Add 10 μl 4 fold concentrated inhibitor in 4% DMSO in H2O to each well except to C− and C+wells • 3) Add 10 μl 4% DMSO in H2O to C− and C+wells • 4) Add 10 μl 500 mM EDTA in H2O to C− wells • 5) Add 10 μl 50 μCi/ml Adenosine 5′-[-^33P]triphosphate in H2O to each well • 6) Add 10 μl 4 fold concentrated kinase in Reaction Buffer to each well • 7) Incubate 1 hr at room temperature • 8) Add 10 μl 50 mM EDTA in H2O to each well except to C− wells • 9) Prepare MAPH plates by adding 200 μl 0.75% H3PO4 to each well • 10) Exhaust 0.75% H3PO4 using Millipore vacuum station • 11) Add 60 μl 0.75% H3PO4 to each well of MAPH Filter Plate • 12) Transfer 30 μl sample per well from Assay Plate to corresponding well of MAPH Filter Plate • 13) Incubate 30 min at room temperature • 14) Wash each well of MAPH Filter Plates 3× with 200 μl 0.75% H3PO4 using Millipore vacuum station. • 15) Add 20 μl Scintillation Liquid to each well of MAPH Filter Plate • 16) Seal MAPH Filter Plate • 17) Store MAPH Filter Plate 30 min in darkness • 18) Quantify radioactivity Results:
(§3) IC50s were calculated for each kinase based on serial dilutions.

Another assay concerns the target T2, CDK5/p35 (Homo sapiens, UniProt Q00535).
T2 construct: purchased Upstate
Nature of the assay: General kinase assay (Example 80). In kind it is biochemical. The settings on record: ATP 1 μM. How it is done: as §1, §2, §3

A further assay has as its system HT29. Nature of the assay: Growth assay using Alamar Blue. The class given is cell-based. The settings on record: Homo sapiens, HT-29, read-out: IC50 against cell line HT29. The method, then:
(§4) Cells were seeded in 384-well plates (white, Greiner: 781080) at a density of […] cells per well in medium (RPMI+10% FCS).
(§5) Cells were incubated in 25 μl medium/well and were grown over night at 37° C., 6% CO2. On the following day compounds were added in DMSO in serial fold dilutions in fresh medium. Negative control wells were incubated without cells. Positive control wells were incubated with cells but without inhibitors (DMSO only). These wells served as data points to determine relative growth (given in % of the DMSO control [=100%]). The cell number was determined by addition of 5 μL Alamar Blue™ (Biosource DAL1100) to each well. Fluorescence was measures with an Analyst GT machine (Molecular Devices) at an excitation wavelength of 560 nm and an emission wavelength of 590 nm.
(§6) The following cell lines were used: A2780 (ECACC order number 93112519; human ovarian carcinoma; Semin Oncol (1984) 11:285; Cancer Res (1987) 47:414), B16F1 (ATCC order number CRL-6323; melanoma; Nat. New Biol. 242: 148-149, 1973); HCT116 (ATCC order number CCL-247; Colorectal carcinoma; Cancer Res (1981) 41:1751; Cancer (1995) 76:201), HT29 (ATTC order number HTB-38; colorectal adenocarcinoma; J. Biol. Chem. 271: 9490-9496, 1996) HepG2 (ATCC order number HB-8065; hepatocellular carcinoma; J. Biol. Chem. 271: 10073-10078, 1996), J774 (ATCC order number TIB-67; reticulum cell sarcoma; J. Biol. Chem. 271: 18431-18436, 1996); MCF7 (ATCC order number HTB-22; Breast carcinoma; J Natl Cancer Inst (1973) 51:1409; Cancer Res (1993) 53:5193), PM1 (obtainable from the National Institute of Allergy and Infectious Diseases; Division of AIDS via the NIH AIDS Research & Reference Reagent Program; Lusso P et al (1995), J Virol 69: 3712-3720) and U373-MAGI-CCR5 (obtainable from the National Institute of Allergy and Infectious Diseases; Division of AIDS via the NIH AIDS Research & Reference Reagent Program; Kensinger R D et al (2004), Antimicrob Agents Chemother 48: 1614-1623).
(§7) IC50s were calculated for each cell line based on serial dilutions.

Another assay concerns MCF7. Nature of the assay: Growth assay using Alamar Blue. The class given is cell-based. The settings on record: Homo sapiens, read-out: IC50 against cell line MCF7. The method, then:
as §4, §5, §6, §7
For orientation: Resazurin is reduced to fluorescent resorufin, in cell work by metabolically active cells.

In a further assay the test system is PM1. Nature of the assay: Growth assay using Alamar Blue. In kind it is cell-based. The conditions noted are these: read-out: IC50 against cell line PM1. How it is done:
as §4, §5, §6, §7

The next assay has as its system HCT116. Nature of the assay: Growth assay using Alamar Blue. In kind it is cell-based. The conditions noted are these: Homo sapiens, HCT-116, read-out: IC50 against cell line HCT116. How it is done: as §4, §5, §6, §7
Another assay relates to J774. The assay is described as follows: Growth assay using Alamar Blue. In kind it is cell-based. The conditions noted are these: Mus musculus, read-out: IC50 against cell line J774. How it is done:
as §4, §5, §6, §7

The test system of the next assay is HepG2. The assay is described as follows: Growth assay using Alamar Blue. In kind it is cell-based. The conditions noted are these: Homo sapiens, read-out: IC50 against cell line HepG2. The method, then:
as §4, §5, §6, §7

The test system of another assay is U373-MAGI-CCR5E. The assay is described as follows: Growth assay using Alamar Blue. The class given is cell-based. The conditions noted are these: read-out: IC50 against cell line U373-MAGI-CCR5E. How it is done:
as §4, §5, §6, §7

The next assay has as its system B16F1. Nature of the assay: Growth assay using Alamar Blue. In kind it is cell-based. The conditions noted are these: Mus musculus, B16-F1, read-out: IC50 against cell line B16F1. The method, then: as §4, §5, §6, §7
For the next assay, the system named is A2780. Nature of the assay: Growth assay using Alamar Blue. The conditions noted are these: Homo sapiens, read-out: IC50 against cell line A2780. The class given is cell-based. How it is done:
as §4, §5, §6, §7

The target in another assay is CDK6/CycD3 (Homo sapiens, UniProt Q00534). The assay is described as follows: General kinase assay (Example 80). The settings on record: ATP 1 μM. The class given is biochemical. How it is done:
as §2, §3

The target in another assay is CDK1/CycB (Homo sapiens, UniProt P06493). The assay is described as follows: General kinase assay (Example 80). In kind it is biochemical. The conditions noted are these: ATP 1 μM. How it is done:
as §2, §3

The next assay has as its target CDK4/CycD1 (Homo sapiens, UniProt P11802). The assay is described as follows: General kinase assay (Example 80). In kind it is biochemical. The settings on record: ATP 1 μM. The method, then: as §2, §3
The next assay deals with HBV (HepG2-2.2.15 cells). The assay is described as follows: HBV replication assay. The class given is cell-based. The conditions noted are these: 6 days. The method, then: To test the anti-HBV-activity of compounds of the present invention the HBV-producing cell line HepG2-2.2.15 (M. A. Sells, PNAS 1987, 84, 1005-1009) is used. About 1.0×10^4 cells are seeded in 96-well microtiter plates in DMEM medium supplemented with 10% FCS. After incubation at 37° C. in 5% CO2 atmosphere for 24 hours the medium is replaced with fresh medium containing the appropriately diluted compounds of the present invention. 3 days later medium is replaced by freshly prepared compound-containing medium and the cells are incubated for further 3 days. Subsequently 200 μl lysis buffer (50 mM Tris-Cl 7.5; 1 mM EDTA 8.0; 0.5% NP40) per well is added. To remove cell debris and nucleic acids, lysate is centrifuged (15000 rpm, 10 min, 4° C.).
Cellular and viral RNA is removed by addition of 2 μl of RNase. 100 μl of the samples are spotted onto an uncharged nylon membrane pre-wetted with PBS (phosphate-buffered saline) using a 96 well-blotting chamber (MINIfold Dot-Blot, Schleicher&Schüll). […]
The fixed membrane is pre-hybridized in a standard hybridisation buffer (50% formamide, 5×SSPE, 10×Denhards, 1% SDS, 100 μg/ml salmon sperm DNA) for at least 3 hours at 42° C. and hybridised overnight against the labelled HBV-fragment. […] The intensity of the HBV-DNA is quantified using a phosphoimager (Fuji). […] Absorbance is monitored at 570 nm and 600 nm wavelength.

Each structure is given as a SMILES string.

T2 sequence (Q00535 whole entry): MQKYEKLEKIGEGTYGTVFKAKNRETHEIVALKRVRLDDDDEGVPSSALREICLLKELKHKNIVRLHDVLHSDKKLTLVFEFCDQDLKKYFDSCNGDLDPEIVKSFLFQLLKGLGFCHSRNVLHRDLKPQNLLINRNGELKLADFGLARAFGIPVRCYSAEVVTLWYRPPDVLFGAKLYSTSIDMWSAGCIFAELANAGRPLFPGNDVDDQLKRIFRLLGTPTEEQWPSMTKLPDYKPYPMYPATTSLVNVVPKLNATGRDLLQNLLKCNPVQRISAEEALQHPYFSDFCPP
T2 sequence (Q15078 whole entry partner): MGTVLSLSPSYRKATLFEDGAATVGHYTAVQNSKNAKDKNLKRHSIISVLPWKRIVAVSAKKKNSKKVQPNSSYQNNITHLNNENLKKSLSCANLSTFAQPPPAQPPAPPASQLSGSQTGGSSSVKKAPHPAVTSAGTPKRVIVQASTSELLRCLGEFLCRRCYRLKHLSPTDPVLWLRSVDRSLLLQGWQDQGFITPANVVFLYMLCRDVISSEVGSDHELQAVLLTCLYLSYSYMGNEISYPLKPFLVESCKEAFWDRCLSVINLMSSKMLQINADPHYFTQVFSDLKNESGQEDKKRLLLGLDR
CDK1/CycB, sequence (P06493 whole entry, species assumed): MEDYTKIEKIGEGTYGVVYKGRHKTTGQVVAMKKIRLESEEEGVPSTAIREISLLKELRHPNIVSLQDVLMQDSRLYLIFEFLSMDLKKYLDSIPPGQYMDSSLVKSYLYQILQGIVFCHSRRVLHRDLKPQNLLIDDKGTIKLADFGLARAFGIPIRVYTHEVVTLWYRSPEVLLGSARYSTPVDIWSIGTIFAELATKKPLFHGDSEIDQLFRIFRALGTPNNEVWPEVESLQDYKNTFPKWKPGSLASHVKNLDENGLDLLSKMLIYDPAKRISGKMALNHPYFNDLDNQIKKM
CDK1/CycB, sequence (P14635 whole entry partner, species assumed): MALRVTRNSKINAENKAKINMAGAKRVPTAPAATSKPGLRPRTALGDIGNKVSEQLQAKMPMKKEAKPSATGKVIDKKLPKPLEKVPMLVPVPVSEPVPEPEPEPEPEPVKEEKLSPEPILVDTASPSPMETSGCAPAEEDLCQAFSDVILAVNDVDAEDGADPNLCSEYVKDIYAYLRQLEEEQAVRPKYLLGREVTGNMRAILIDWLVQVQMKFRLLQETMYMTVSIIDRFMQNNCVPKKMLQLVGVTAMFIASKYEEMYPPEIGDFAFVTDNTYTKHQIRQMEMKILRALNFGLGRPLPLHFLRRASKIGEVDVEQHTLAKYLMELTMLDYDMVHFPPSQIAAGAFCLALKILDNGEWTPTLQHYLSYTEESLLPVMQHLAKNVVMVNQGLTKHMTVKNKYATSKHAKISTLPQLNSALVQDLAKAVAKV
CDK4/CycD1, sequence (P11802 whole entry, species assumed): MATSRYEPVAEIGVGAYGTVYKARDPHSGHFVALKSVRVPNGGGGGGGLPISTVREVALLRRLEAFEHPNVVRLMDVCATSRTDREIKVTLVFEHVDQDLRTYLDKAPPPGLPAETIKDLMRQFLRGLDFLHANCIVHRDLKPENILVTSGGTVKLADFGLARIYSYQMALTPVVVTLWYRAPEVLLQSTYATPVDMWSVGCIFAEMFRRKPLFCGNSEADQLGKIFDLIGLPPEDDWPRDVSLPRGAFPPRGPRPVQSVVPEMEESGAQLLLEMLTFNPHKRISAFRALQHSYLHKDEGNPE
CDK4/CycD1, sequence (P24385 whole entry partner, species assumed): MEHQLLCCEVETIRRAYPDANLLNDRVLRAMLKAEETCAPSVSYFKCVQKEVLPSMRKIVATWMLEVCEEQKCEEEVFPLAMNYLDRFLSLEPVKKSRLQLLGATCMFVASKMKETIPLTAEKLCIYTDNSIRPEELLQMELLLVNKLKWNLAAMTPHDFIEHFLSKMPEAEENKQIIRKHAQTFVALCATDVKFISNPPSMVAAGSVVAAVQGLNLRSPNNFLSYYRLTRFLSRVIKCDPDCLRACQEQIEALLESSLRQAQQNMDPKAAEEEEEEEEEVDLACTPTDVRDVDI
CDK6/CycD3, sequence (Q00534 whole entry, species assumed): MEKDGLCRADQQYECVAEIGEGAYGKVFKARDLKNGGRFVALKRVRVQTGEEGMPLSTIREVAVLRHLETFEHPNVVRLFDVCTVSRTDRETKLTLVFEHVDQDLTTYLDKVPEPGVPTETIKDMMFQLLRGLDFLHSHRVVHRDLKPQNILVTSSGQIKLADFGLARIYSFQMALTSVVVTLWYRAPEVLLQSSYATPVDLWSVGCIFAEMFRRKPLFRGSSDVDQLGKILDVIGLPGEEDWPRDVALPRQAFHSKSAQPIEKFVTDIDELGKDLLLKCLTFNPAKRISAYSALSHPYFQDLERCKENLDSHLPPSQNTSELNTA
CDK6/CycD3, sequence (P30281 whole entry partner, species assumed): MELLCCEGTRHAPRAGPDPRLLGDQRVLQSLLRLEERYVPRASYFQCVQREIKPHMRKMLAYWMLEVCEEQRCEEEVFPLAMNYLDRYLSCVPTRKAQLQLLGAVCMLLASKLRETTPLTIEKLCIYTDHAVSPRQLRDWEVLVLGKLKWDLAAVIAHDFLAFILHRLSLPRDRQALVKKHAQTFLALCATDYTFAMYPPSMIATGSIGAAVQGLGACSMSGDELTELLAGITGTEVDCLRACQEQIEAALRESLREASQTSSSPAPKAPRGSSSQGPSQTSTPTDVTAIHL

The term IC50 denotes the midpoint of a concentration-inhibition curve. As for `COc1ccccc1-c1cc(Nc2cccc(CS(N)(=O)=O)c2)ncn1` [Compound 85, C-{3-[6-(2-methoxy-phenyl)-pyrimidin-4-ylamino]-phenyl}-methanesulfonamide], the IC50 on CDK2/CycA was less than 10 µM; on CDK5/p35, less than 5 µM; in the assay on HT29, less than 5 µM; with MCF7 it was less than 10 µM; in the assay on PM1 it was less than 5 µM; in the assay on HCT116, less than 2 µM. For the same compound, the IC50 with J774, in the assay on HepG2, in the assay with U373-MAGI-CCR5E, with B16F1, in the assay with A2780 and on CDK6/CycD3 was less than 10 µM in each case. The IC50 against CDK1/CycB and on CDK4/CycD1 was less than 10 µM throughout.
In the case of `CN1CC[C@H](c2c(O)cc(O)c3c(=O)cc(-c4ccccc4Cl)oc23)[C@H](O)C1` [flavopiridol], the “HBV replication (HBV-DNA)” value in the assay with HBV (HepG2-2.2.15 cells) is on record as “inhibits replication”.

(Values after patent US8507498B2, “4, 6-disubstituted aminopyrimidine derivatives as inhibitors of protein kinases” (Ingenium Pharmaceuticals GmbH, priority 2007, dated 2013).)
